Test results as given in patent EP3002286B1, “PREPARATION METHOD FOR POLYMORPHIC 6-(4-CHLOROPHENOXY)-TETRAZOLO[5,1-A]PHTHALAZINE AND USE THEREOF” (Jilin Yinglian Shangde Science and Technology Development …, priority 2014, dated 2015).

Experiments:
[1] = test system: maximal electroshock seizure; experiment: Maximal electroshock (MES) test; format: in vivo; settings: mice; for ED50: Mus musculus, po; for ED50 / ED50, MES: p.o (intragastrically, i.g.), effect against electroshock seizure
Method: Maximal electroshock (MES) test is an ideal animal model for evaluating a compound having a potential anti-epileptic effect, and if the compound can be applied against the maximal electroshock seizure, then it is likely to be further developed as a drug for treatment of grand mal clinically. Each of the four crystalline forms of this invention was intragastrically (i.g.) administered to mice respectively, each median effective dose (ED50) for the effect against electroshock seizure was measured, and each anti-convulsion effect was assessed. Table 3 Comparison of the pharmacological effect of the anti-convulsion of the crystalline forms (mg/kg, p.o)

[2] = Comparison of solubility of the crystalline forms in water (UV absorbance of saturated solution); format: physicochemical; settings: for Absorbance (Abs): saturated water solution (10mg in 1ml of water, stirred 1 hour, filtered), diluted 10 times, ultraviolet spectrophotometer; for Solubility relationship with respect to Form A: water, concentration ratio from absorbance according to the Lambert-Beer law
Method: 10mg of 6-(4-chlorophenoxy)-tetrazolo[5,1-a]phthalazine in each of the four crystalline forms was dissolved into 1ml of water, respectively, and the mixture was stirred for 1 hour so as to reach a solubility equilibrium with a supersaturated state being kept, and then the resultant mixture was filtered to give a clear and saturated water solution for each of the crystalline forms, respectively. Then, each solution was diluted 10 times, and absorbance thereof was measured using a ultraviolet spectrophotometer, and then the concentration ratio of 6-(4-chlorophenoxy)-tetrazolo[5,1-a]phthalazine in each solution could be determined according to the Lambert-Beer law, so as to obtain the solubility relationship among the four crystalline forms (see Table 2 for results). Table 2 Comparison of solubility of the crystalline forms

[3] = Stability of the crystalline forms (suspension balance), product form decided by XRPD; format: physicochemical; settings: suspension time 2 days
Method: 20mg of crystalline form A and 20mg of crystalline form B were mixed, then placed into 1ml of methanol as a solvent, followed by mixing the resultant suspension with a magnetic stirrer at a rotational speed of 100 rpm for two days. And then, the suspension was filtered, and the product obtained was washed with a small amount of methanol, followed by drying at room temperature to give a solid, which was analyzed with XRPD to decide the crystalline form of the product. Other sample mixtures were also shown in Table 1 (see Table 1 for results). Table 1 Comparison of the stability of the crystalline forms (suspension balance)

SMILES | Absorbance (Abs) [2] [Abs] | Solubility relationship with respect to Form A [2] [times] | ED50, MES [1] [mg/kg] | further results
NC(=O)N1c2ccccc2C=Cc2ccccc21 [Carbamazepine, reference compound] | – | – | – | ED50 [1]: 15.4 mg/kg
Clc1ccc(Oc2nn3nnnc3c3ccccc23)cc1 [Crystalline form A, 6-(4-chlorophenoxy)-tetrazolo[5,1-a]phthalazine] | 0.0407 | – | – | ED50 [1]: 15.6 mg/kg
Clc1ccc(Oc2nn3nnnc3c3ccccc23)cc1 [Crystalline form B, 6-(4-chlorophenoxy)-tetrazolo[5,1-a]phthalazine] | 0.279 | 6.8 | 9.2 | –
Clc1ccc(Oc2nn3nnnc3c3ccccc23)cc1 [Crystalline form C, 6-(4-chlorophenoxy)-tetrazolo[5,1-a]phthalazine] | 0.326 | 8.0 | 8.5 | water solubility (in words) ([2]; comparison among the crystalline forms): best water solubility; anti-convulsion effect (in words) ([1]; comparison among the crystalline forms, intragastrically administered): strongest anti-convulsion effect
Clc1ccc(Oc2nn3nnnc3c3ccccc23)cc1 [Crystalline form D, 6-(4-chlorophenoxy)-tetrazolo[5,1-a]phthalazine] | 0.134 | 3.3 | 12.7 | –
Clc1ccc(Oc2nn3nnnc3c3ccccc23)cc1 [Form A + Form B, 6-(4-chlorophenoxy)-tetrazolo[5,1-a]phthalazine] | – | – | – | Crystalline form of the product ([3]; solvent for suspension Methanol): Form A
Clc1ccc(Oc2nn3nnnc3c3ccccc23)cc1 [Form A + Form C, 6-(4-chlorophenoxy)-tetrazolo[5,1-a]phthalazine] | – | – | – | Crystalline form of the product ([3]; solvent for suspension Methyl ethyl ketone): Form A
Clc1ccc(Oc2nn3nnnc3c3ccccc23)cc1 [Form A + Form D, 6-(4-chlorophenoxy)-tetrazolo[5,1-a]phthalazine] | – | – | – | Crystalline form of the product ([3]; solvent for suspension Nitromethane + n-hexane): Form A
